Laboratory results from US20250186646A1, “Use of Volatile Compositions to Limit or Eliminate Perception of Fecal Malodour” (Firmenich SA, priority 2016, published 2025).

How the values were obtained:
butyric acid = assay: Reduction of perceived intensity of butyric acid by MOCs (Table 16); assay type: in vivo
[1] = Olfactory detection thresholds (ODT); conditions: gas phase
[2] = system: fecal malodour reconstitution; assay: Olfactometer blind sensory evaluation of test and control formulations (Example 15); assay type: in vivo; set-up: Fecal Score / Freshness Score / Pleasantness Score: scale not given here; conditions: for Fecal Score: in combination with fecal reconstitution; for Fecal Score left: relative to fecal reconstitution alone (100)
Description: (§1) The performance of a test formulation containing LILYFLORE, Violet AT and Isoraldeine to counteract the fecal malodour perceived from a fecal malodour reconstitution was tested. The amount of each single ingredient in the test formulation was the same as the corresponding concentration of the ingredient that was incorporated into the Floral compositions. Separate control formulations were also included, comprising LILYFLORE, Violet AT and Isoraldeine separately, at the same concentration as each single ingredient in the test formulation. The sensory evaluation was blind, and performed using olfactometers and a set of more than 30 participants evaluating blind. In parallel, the headspace concentration of the ingredients from the test and three control formulations was determined.
as §1, with “of another” for “of a”, “and dihydrolinalol” for “and Isoraldeine”, “tested.” for “tested. The amount of each single ingredient in the test formulation was the same as the corresponding concentration of the ingredient that was incorporated into the Floral compositions.”
The performance of another test formulation containing LILYFLORE, isoraldeine, Violet AT and dihydrolinalol to counteract the fecal malodour perceived from a fecal malodour reconstitution was tested. Separate control formulations were also included, comprising LILYFLORE, Violet AT, isoraldeine and dihydrolinalol separately, at the same concentration as each single ingredient in the test formulation. The sensory evaluation was blind, and performed using olfactometers and a set of more than 30 participants evaluating blind. In parallel, the headspace concentration of the ingredients from the test and […] control formulations was determined.

butyric acid receptors = assay: Ex vivo live neuron assay antagonism screening; assay type: cell-based, mice; conditions: butyric acid malodour target
From the text: In the ex vivo live neuron assay, olfactory sensory neurons (OSNs) are extracted from the olfactory epithelium of mice and can be tested for responses to sequentially delivered stimuli, where responses are detected through live-cell calcium-imaging microscopy. It has been established through prior research in the field that the vast majority of extracted OSNs express 1 out of the approximately 1200 odourant receptors (ORs) present in the genome of a mouse, such that in our samples of extracted OSNs, the majority of the 1200 ORs should have been represented in at least one OSN. Since the responses of the OSNs to the delivered stimuli are entirely driven by the expressed OR, the OSNs selectively detect and collectively encode the identity and intensity of odourants. By stimulating the OSNs with MO molecules and measuring the response of each OSN, the subset in which a response is induced is those that detect and therefore presumably encode the MO. By subsequently delivering a mixture of MO and a candidate antagonist to the same cells, the degree of suppression of signal in each MO-responsive OSN can be determined (“level of inhibition”). […] In addition, the proportion of MO-responsive OSNs displaying low, medium and high inhibition was calculated. […]

Compound: C=CC(C)(O)CCCC(C)C (racemic) [Dihydrolinalol, (+−)-3,7-DIMETHYL-1-OCTEN-3-OL]
- Butyric acid Dyn Conc (butyric acid; concentration at which the MOC reduces the perceived intensity of butyric acid): 0.76 µg/L
- Butyric acid Reduction (butyric acid; perceived intensity of butyric acid, at the Dyn Conc): 64
- olfactory detection thresholds (ODT) [1]: 0.00137 µg/L
- Fecal % Redn ([2]; Table 19): 35%
- Freshness Score ([2]; Table 19): 3.9
- Pleasantness Score ([2]; Table 19): 3.5
- Fecal Score ([2]; Table 19): 5.6
- Fecal Score left ([2]; Table 19): 65
- Fecal % Redn ([2]; Table 20): 30%
- Freshness Score ([2]; Table 20): 3.2
- Pleasantness Score ([2]; Table 20): 3.2
- Fecal Score ([2]; Table 20): 6.1
- Fecal Score left ([2]; Table 20): 70
- antagonism of malodour receptors (butyric acid receptors): antagonist of butyric acid receptors
